Literature values in US20170119742A1, “MEDICAMENT FOR PREVENTING AND/OR TREATING STRESS DISEASES” (ONO PHARMACEUTICAL CO., LTD., priority 2014, published 2017).

Biological target: brain NK1 receptors (Homo sapiens, UniProt P25103)
Conditions: Non-Patent Document 5; cited from earlier work

Chain of brain NK1 receptors (P25103 whole entry): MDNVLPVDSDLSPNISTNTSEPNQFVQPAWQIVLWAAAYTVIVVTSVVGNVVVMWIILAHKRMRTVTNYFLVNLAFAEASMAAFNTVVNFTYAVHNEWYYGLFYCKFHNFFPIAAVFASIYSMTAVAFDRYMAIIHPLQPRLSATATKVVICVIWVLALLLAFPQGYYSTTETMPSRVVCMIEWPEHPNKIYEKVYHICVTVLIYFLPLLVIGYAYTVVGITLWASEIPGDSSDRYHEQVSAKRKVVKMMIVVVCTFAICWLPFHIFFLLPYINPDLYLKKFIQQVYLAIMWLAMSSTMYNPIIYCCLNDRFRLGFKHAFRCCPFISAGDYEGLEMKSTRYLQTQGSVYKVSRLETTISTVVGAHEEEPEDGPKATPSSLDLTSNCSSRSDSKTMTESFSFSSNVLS

In the case of `C[C@@H](O[C@H]1OCCN(Cc2n[nH]c(=O)[nH]2)[C@H]1c1ccc(F)cc1)c1cc(C(F)(F)F)cc(C(F)(F)F)c1` [aprepitant], the “brain NK1 receptor occupancy necessary for expressing the efficacy” value is given as at least 90% and the “plasma concentration at 90% or more brain NK1 receptor occupancy” value is given as at least 100 ng/mL.
